Assay results published in PubChem BioAssay (NCI).
“And” between values parts separate entries of the source, which are not always exact repeats. Equal entries are not always repeated.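 96-well plates; 48 h exposure; 5 concentrations. Endpoints by linear interpolation between flanking doses. Not reached: highest tested concentration assigned. GI50: concentration for 50% inhibition of growth. Definition used: TGI = concentration required for complete inhibition of growth.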

What was measured:
Assay in all cases: DTP human tumour cell line panel, 48 h
OVCAR-5 ovarian = tested on: OVCAR-5 ovarian
SK-MEL-5 melanoma = tested on: SK-MEL-5 melanoma
HCT-15 colon = tested on: HCT-15 colon
CCRF-CEM leukemia = tested on: CCRF-CEM leukemia
PC-3 prostate = tested on: PC-3 prostate
HOP-62 NSCLC = tested on: HOP-62 NSCLC
OVCAR-4 ovarian = tested on: OVCAR-4 ovarian
MDA-MB-435 = tested on: MDA-MB-435
K-562 leukemia = tested on: K-562 leukemia
SF-539 CNS = tested on: SF-539 CNS

Compound	TGI (OVCAR-5 ovarian)	TGI (SK-MEL-5 melanoma)	TGI (HCT-15 colon)	TGI (CCRF-CEM leukemia)	TGI (PC-3 prostate)	TGI (HOP-62 NSCLC)	TGI (OVCAR-4 ovarian)	TGI (MDA-MB-435)	TGI (K-562 leukemia)	TGI (SF-539 CNS)	GI50 (OVCAR-5 ovarian)	GI50 (SK-MEL-5 melanoma)	GI50 (HCT-15 colon)	GI50 (CCRF-CEM leukemia)	GI50 (PC-3 prostate)	GI50 (HOP-62 NSCLC)	GI50 (OVCAR-4 ovarian)	GI50 (MDA-MB-435)	GI50 (K-562 leukemia)	GI50 (SF-539 CNS)
CSc1cccc(NC(=O)OC2CCCCCCCCCCC2)c1	> 100 µM	29.1 µM	> 100 µM	45.5 µM	> 100 µM	48.3 µM	45.6 µM	39.9 µM	93.7 µM	63.7 µM	–	–	–	–	–	–	–	–	–	–
COc1ccc(C2=CC(c3ccc(OC)c(OC)c3)c3c(c4ccccc4oc3=O)O2)cc1OC (centres undefined)	> 100 µM	> 25.4 µM	> 100 µM	> 100 µM	> 100 µM	> 100 µM	> 100 µM	0.831 µM	> 100 µM	4.43 µM	6.33 µM	0.363 µM	1.58 µM	2.36 µM	0.745 µM	2.2 µM	3.85 µM	0.244 µM	1.02 µM	1.02 µM
CO[C@H]1CC(c2ccc[nH]2)=N[C@]12O[C@@H](C)C[C@@H]1CCCCCCCc3ccc([nH]3)[C@H]12	6.22 µM	1.17 µM	8.51 µM	> 30.4 µM	20.7 µM	14.9 µM	22.2 µM	4.29 µM	> 24.2 µM	9.26 µM	1.25 µM	0.527 µM	0.851 µM	0.704 µM	0.78 µM	1.35 µM	0.508 µM	1.1 µM	0.821 µM	1.01 µM
OCCN1CCN(CC/C=C2\c3ccccc3Sc3ccc(Cl)cc32)CC1	14.1 µM and 24.9 µM	3.01 µM and 3.04 µM	3.64 µM and 4.29 µM	4.58 µM and 11.9 µM	11.8 µM and 13.4 µM	14.5 µM and 7.04 µM	20.7 µM and 21.1 µM	4.78 µM and 4.63 µM	2.94 µM and 3.68 µM	3.37 µM and 4.37 µM	3.75 µM and 11.8 µM	1.61 µM and 1.67 µM	1.84 µM and 2 µM	1.61 µM and 3.29 µM	2.75 µM and 2.96 µM	4.07 µM and 2.62 µM	8.38 µM and 8.18 µM	1.99 µM and 2.01 µM	1.52 µM and 1.77 µM	1.61 µM and 2.05 µM
CNC(=O)OCC1C2=C(C(=O)C(C)=C(N)C2=O)N2CC3C(N3C)C12OC (centres undefined)	> 100 µM	23.8 µM	27 µM	> 100 µM	64.7 µM	> 100 µM	33 µM	> 100 µM	> 100 µM	87.5 µM	–	–	–	–	–	–	–	–	–	–
C/C=C(\C)C(=O)N[C@H]1C(O)C[C@]2(C)C3CC[C@@]4(C)C(CC[C@@H]4C(C)N(C)C)C3CCC2C1O (some centres undefined)	> 47.9 µM	3.46 µM	5.01 µM	75.8 µM	> 52.6 µM	11.8 µM	> 100 µM	5.85 µM	8.34 µM	3.46 µM	16.7 µM	1.65 µM	1.71 µM	7.76 µM	8.72 µM	5.97 µM	8.52 µM	2.54 µM	1.9 µM	1.61 µM
CC(=O)Oc1ccc(C(c2ccc(OC(C)=O)cc2)c2ccccn2)cc1	> 100 µM and 95.4 µM	> 100 µM	> 100 µM	> 100 µM	> 100 µM	> 100 µM	4.42 µM	> 100 µM	> 100 µM	> 100 µM	55.7 µM	31.8 µM	31.8 µM	43 µM	16.3 µM	> 58.3 µM	0.287 µM	53.2 µM	39.3 µM	–
COc1cc2c3c(n(CCCN=[N+]=[N-])c(=O)c2cc1OC)-c1ccc(N(C)C)cc1C3=O	> 100 µM	> 100 µM	> 100 µM	> 100 µM	> 100 µM	> 100 µM	> 100 µM	> 100 µM	> 100 µM	> 100 µM	> 100 µM	87.1 µM	> 100 µM	> 100 µM	> 100 µM	> 100 µM	> 100 µM	> 100 µM	> 100 µM	> 100 µM
O=C(Nc1ccc(I)cc1F)c1cc(Cl)ccc1O	> 100 µM	0.596 µM	10.7 µM	10 µM	6.5 µM	8 µM	6.4 µM	4.9 µM	> 100 µM	3.89 µM	3.55 µM	0.234 µM	0.554 µM	1.73 µM	1.91 µM	2.21 µM	0.356 µM	0.583 µM	0.429 µM	0.409 µM
O=C(Nc1ccc(Cl)c(Cl)c1)OCCN1c2ccccc2Sc2ccccc21	> 10 µM	> 10 µM	> 10 µM	> 10 µM	> 10 µM	> 10 µM	> 10 µM	> 10 µM	> 10 µM	> 10 µM	–	–	–	–	–	–	–	–	–	–
O=S(=O)(NCCNc1nccc(-c2c(-c3ccc(F)cc3)nc3sccn23)n1)c1ccccc1	> 100 µM	13.7 µM	> 100 µM	> 100 µM	78.8 µM	> 100 µM	> 100 µM	> 100 µM	> 100 µM	> 100 µM	81.1 µM	2.45 µM	3.07 µM	3.5 µM	4 µM	26.4 µM	5.6 µM	2.56 µM	4.35 µM	19 µM
CC(C)COC(=O)c1ccc2[nH]c(O)c(C=Nc3ccc(S(N)(=O)=O)cc3)c2c1	13.8 µM	4.46 µM	25 µM	15.3 µM	6.54 µM	4.84 µM	7.79 µM	5.79 µM	17.1 µM	3.67 µM	1.87 µM	1.65 µM	5.9 µM	0.823 µM	1.6 µM	1.58 µM	2.39 µM	1.68 µM	2.32 µM	0.975 µM
CC(Br)C(=O)Nc1ccc(C(=O)O)c(O)c1 (centres undefined)	> 100 µM	> 100 µM	> 100 µM	43.6 µM	> 100 µM	> 100 µM	> 100 µM	> 100 µM	> 100 µM	> 100 µM	–	–	–	–	–	–	–	–	–	–
Cc1c(Sc2ccccc2)[n+](=O)c2cc(Cl)c(Cl)cc2n1[O-]	> 100 µM	> 100 µM	> 100 µM	> 100 µM	> 100 µM	> 100 µM	> 100 µM	> 100 µM	11.3 µM	> 100 µM	> 100 µM	54.1 µM	53.7 µM	32.8 µM	> 100 µM	> 100 µM	85.3 µM	95.6 µM	2.22 µM	89.9 µM
